Results on five compounds are retold here after ChEMBL document CHEMBL3286254, “Structure-guided discovery of 1,3,5 tri-substituted benzenes as potent and selective matriptase inhibitors exhibiting in vivo antitumor efficacy” (Bioorg Med Chem, 2014).

The test system of data set [1] is DU-145. Put plainly: Antiinvasion activity in human DU145 cells assessed as inhibition of FBS-induced cell invaded to lower surface at 10 uM for 3 days by matrigel assay. The format is functional. To be noted: DU-145, 72 h.
Data set [2] can be described thus: Antiinvasion activity in human LNCaP-C42B4 cells assessed as inhibition of FBS-induced cell invaded to lower surface at 10 uM for 3 days by matrigel assay. It is filed as functional. To be noted: LNCaP-C42B4, 72 h.
Data set [3] concerns PC-3. Nature of the data set: Antiinvasion activity in human PC3 cells assessed as inhibition of FBS-induced cell invaded to lower surface at 10 uM for 3 days by matrigel assay. It is filed as functional. To be noted: PC-3, 72 h.
For data set [4], the target named is T1, Suppressor of tumorigenicity 14 protein (Homo sapiens, UniProt Q9Y5Y6).
T1 sequence (Q9Y5Y6 whole entry): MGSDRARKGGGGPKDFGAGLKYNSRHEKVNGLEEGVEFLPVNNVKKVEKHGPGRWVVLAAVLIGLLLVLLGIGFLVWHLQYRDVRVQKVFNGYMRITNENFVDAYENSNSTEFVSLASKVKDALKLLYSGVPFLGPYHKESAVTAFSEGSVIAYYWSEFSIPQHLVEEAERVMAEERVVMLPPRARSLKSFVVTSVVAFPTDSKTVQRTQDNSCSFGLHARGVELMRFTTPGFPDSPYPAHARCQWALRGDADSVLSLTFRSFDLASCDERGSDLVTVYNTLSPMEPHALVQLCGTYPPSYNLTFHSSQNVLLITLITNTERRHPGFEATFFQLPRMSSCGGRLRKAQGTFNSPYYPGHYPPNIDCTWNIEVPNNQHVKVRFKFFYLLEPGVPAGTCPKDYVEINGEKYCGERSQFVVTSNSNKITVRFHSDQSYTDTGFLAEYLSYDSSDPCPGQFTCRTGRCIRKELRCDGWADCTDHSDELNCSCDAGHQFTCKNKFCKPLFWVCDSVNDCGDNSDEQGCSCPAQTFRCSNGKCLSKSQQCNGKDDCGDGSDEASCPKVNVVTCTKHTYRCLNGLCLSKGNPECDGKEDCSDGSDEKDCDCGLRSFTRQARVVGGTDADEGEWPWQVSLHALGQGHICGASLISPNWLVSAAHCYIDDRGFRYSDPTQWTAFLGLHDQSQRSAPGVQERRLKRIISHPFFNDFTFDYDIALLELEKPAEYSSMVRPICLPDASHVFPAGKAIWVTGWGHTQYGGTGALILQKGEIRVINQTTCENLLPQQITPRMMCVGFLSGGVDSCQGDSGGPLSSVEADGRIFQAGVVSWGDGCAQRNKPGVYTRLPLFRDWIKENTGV
Put plainly: Inhibition of recombinant matriptase (unknown origin) using Boc-Gln-Ala-Arg-7-amido-4-methyl coumarin hydrobromide.

Data set [5] has as its target Coagulation factor X (Bos taurus, UniProt P00743). Nature of the data set: Inhibition of bovine plasma factor 10a using CH3OCO-D-CHA-Gly-Arg-pNA.AcoH substrate.
Data set [6] concerns the target Prothrombin (Homo sapiens, UniProt P00734). Nature of the data set: Inhibition of human thrombin using Boc-Gln-Ala-Arg-7-amido-4-methyl coumarin hydrobromide.
Data set [7] concerns the target Plasminogen (Homo sapiens, UniProt P00747). Put plainly: Inhibition of human plasmin using pyroGlu-Phe-Lys-pNA.HCl.
Data set [8] deals with Trypsin (Homo sapiens, UniProt P07477+P07478+P35030). Nature of the data set: Inhibition of human pancreas Trypsin using Boc-Gln-Ala-Arg-7-amido-4-methyl coumarin hydrobromide. It is filed as protein assay.
The test system of data set [9] is DU-145. Nature of the data set: Cytotoxicity against human DU145 cells assessed as cell survival at 10 uM after 72 hrs by calcein AM assay. The format is functional. To be noted: DU-145, 72 h, read-out: Activity.
Data set [10] in a line: Cytotoxicity against human LNCaP-C42B4 cells assessed as cell survival at 10 uM after 72 hrs by calcein AM assay. The following applies: LNCaP-C42B4, 72 h, read-out: Activity. It is filed as functional.
In data set [11] the test system is PC-3. Put plainly: Cytotoxicity against human PC3 cells assessed as cell survival at 10 uM after 72 hrs by calcein AM assay. The format is functional. The following applies: PC-3, 72 h, read-out: Activity.
The subject of data set [12] is DU-145. Put plainly: Cytotoxicity against human DU145 cells assessed as inhibition of number of colonies formed in soft agar measured on day 8. The format is functional, cell-based. The following applies: DU-145, 192 h.
A short description of data set [13]: Cytotoxicity against human LNCaP-C42B4 cells assessed as inhibition of number of colonies formed in soft agar measured on day 8. It is filed as functional, cell-based. To be noted: LNCaP-C42B4, 192 h.
The test system of data set [14] is PC-3. Put plainly: Cytotoxicity against human PC3 cells assessed as inhibition of number of colonies formed in soft agar measured on day 8. The format is functional, cell-based. The following applies: PC-3, 192 h.
Data set [15] can be described thus: Metabolic stability in mouse liver microsomes assessed as compound remaining after 20 mins. It is filed as ADME. The following applies: read-out: Stability. For orientation: Liver microsomes are vesicles of endoplasmic reticulum, rich in cytochrome P450 enzymes.
A short description of data set [16]: Metabolic stability in rat liver microsomes assessed as compound remaining after 20 mins. The following applies: read-out: Stability. The format is ADME.
Data set [17] is described as follows: Metabolic stability in human liver microsomes assessed as compound remaining after 20 mins. The following applies: read-out: Stability. It is filed as ADME.
Data set [18] in a line: Aqueous solubility of the compound. To be noted: buffer. It is filed as physicochemical.
The target of data set [19] is Cytochrome P450 3A4 (Homo sapiens, UniProt P08684). Nature of the data set: Inhibition of CYP3A4 (unknown origin). It is filed as ADME.
Data set [20] has as its target Cytochrome P450 2D6 (Homo sapiens, UniProt P10635). Nature of the data set: Inhibition of CYP2D6 (unknown origin). The format is ADME.
Data set [21] addresses Cytochrome P450 2C9 (Homo sapiens, UniProt P11712). Put plainly: Inhibition of CYP2C9 (unknown origin). It is filed as ADME.
Data set [22] concerns the target Cytochrome P450 2C19 (Homo sapiens, UniProt P33261). Nature of the data set: Inhibition of CYP2C19 (unknown origin). The format is ADME.

≈ marks a conversion by molar mass, not a printed value. Where only a bound is given, the exact number is not on record here.

Chain of Coagulation factor X (P00743 41-180 limits assumed): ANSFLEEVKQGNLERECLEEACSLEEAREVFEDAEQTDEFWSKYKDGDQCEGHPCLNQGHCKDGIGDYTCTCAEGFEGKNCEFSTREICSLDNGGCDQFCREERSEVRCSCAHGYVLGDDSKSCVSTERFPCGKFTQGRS
Chain of Coagulation factor X (P00743 234-492 limits assumed): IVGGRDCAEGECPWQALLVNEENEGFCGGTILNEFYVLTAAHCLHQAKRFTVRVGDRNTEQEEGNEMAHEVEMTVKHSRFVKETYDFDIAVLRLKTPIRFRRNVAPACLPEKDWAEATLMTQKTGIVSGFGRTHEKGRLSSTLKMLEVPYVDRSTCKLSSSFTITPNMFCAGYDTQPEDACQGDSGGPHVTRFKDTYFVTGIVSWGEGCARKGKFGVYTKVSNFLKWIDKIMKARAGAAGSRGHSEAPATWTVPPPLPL
Chain of Plasminogen (P00747 97-580 limits assumed): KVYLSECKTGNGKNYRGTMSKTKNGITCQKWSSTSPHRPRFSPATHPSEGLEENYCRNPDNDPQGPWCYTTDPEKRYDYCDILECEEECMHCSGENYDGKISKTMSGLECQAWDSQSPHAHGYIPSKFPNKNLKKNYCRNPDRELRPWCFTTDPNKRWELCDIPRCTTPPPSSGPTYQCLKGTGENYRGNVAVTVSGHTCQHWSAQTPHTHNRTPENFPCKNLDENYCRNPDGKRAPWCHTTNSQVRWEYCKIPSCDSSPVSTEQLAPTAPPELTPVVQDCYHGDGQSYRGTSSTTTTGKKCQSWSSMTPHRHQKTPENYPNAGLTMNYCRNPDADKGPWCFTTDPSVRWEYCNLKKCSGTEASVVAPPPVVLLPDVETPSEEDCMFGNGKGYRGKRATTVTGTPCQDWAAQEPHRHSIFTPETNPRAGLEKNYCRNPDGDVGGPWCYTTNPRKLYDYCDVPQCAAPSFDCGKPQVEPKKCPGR
Chain of Plasminogen (P00747 581-810 limits assumed): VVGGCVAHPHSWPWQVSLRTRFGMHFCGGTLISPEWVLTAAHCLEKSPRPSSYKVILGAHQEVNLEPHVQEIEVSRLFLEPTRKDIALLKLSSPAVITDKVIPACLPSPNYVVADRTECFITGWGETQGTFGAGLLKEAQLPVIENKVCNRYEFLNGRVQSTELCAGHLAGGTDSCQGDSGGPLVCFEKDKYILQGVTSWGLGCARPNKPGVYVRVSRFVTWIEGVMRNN
Chain of Cytochrome P450 2C9 (P11712 whole entry): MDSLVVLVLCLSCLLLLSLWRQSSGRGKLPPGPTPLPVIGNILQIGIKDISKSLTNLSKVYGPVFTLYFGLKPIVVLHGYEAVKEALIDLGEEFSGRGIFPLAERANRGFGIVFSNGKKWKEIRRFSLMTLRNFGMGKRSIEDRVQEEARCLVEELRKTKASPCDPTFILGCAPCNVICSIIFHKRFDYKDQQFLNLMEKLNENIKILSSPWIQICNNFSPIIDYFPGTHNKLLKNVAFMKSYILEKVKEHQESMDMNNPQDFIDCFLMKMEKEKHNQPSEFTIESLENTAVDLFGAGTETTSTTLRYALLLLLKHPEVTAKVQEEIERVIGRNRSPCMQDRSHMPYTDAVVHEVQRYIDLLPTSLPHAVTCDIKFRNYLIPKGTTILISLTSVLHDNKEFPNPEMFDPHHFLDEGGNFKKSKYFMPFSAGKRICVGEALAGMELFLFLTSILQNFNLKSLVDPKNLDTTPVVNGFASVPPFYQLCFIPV
Chain of Cytochrome P450 2D6 (P10635 whole entry): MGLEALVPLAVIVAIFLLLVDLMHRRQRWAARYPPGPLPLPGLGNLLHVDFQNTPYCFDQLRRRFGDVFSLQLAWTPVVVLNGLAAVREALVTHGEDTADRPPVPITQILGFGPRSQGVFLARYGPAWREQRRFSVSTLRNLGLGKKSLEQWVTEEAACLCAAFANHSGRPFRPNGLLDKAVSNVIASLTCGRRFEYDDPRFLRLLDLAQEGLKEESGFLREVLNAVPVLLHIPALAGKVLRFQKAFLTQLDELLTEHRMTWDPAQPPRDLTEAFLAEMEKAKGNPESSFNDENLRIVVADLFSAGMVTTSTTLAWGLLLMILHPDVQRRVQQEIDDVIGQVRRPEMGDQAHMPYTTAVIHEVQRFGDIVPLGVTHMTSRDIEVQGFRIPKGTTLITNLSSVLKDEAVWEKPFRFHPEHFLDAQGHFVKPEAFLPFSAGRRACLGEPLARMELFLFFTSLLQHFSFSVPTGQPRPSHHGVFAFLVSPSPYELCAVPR
Chain of Cytochrome P450 2C19 (P33261 whole entry): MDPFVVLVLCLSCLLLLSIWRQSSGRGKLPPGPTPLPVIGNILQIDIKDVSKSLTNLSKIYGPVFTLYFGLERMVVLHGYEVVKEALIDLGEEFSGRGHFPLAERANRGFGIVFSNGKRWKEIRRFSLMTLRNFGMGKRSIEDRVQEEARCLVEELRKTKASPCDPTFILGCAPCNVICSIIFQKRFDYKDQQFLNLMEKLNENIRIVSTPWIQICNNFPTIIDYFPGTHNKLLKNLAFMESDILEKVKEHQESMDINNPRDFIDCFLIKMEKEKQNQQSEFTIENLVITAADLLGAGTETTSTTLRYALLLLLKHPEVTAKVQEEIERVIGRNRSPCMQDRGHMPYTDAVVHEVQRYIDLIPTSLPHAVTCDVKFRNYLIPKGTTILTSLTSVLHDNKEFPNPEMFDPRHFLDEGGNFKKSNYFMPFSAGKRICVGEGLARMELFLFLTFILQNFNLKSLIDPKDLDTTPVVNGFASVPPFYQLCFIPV
Chain of Cytochrome P450 3A4 (P08684 whole entry): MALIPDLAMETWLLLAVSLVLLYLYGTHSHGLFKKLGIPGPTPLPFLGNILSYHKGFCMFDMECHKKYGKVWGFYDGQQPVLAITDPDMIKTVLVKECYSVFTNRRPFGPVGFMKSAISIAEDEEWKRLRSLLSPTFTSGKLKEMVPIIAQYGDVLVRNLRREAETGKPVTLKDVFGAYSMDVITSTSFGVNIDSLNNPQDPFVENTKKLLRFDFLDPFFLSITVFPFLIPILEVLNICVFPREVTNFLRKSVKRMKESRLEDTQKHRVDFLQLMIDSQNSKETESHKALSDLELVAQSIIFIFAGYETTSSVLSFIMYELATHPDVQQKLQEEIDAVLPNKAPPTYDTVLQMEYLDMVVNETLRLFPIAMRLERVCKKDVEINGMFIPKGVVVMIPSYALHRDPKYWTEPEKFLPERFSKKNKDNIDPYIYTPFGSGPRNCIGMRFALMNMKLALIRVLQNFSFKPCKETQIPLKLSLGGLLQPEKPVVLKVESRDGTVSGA

Take `N=C(N)c1ccc(Oc2cc(Oc3ccc(C(=N)N)cc3)cc(C(=O)N3CCC4CCCCC4C3)c2)cc1` (stereo not drawn): the inhibition (commonly the drop in the measured response relative to a control, in per cent) at 10 µM in data set [1] is 45%; in data set [2] it was 15%; in [3] it was 47%. Further, the inhibition constant (Ki) (commonly the equilibrium dissociation constant of an inhibitor or competing ligand from its target) amounted to 305 nM in data set [4]; 336 nM in data set [5]; 501 nM in data set [6]; 1530 nM in [7]; 232 nM in data set [8]. Besides, the viability at 10 µM was 78% in data set [9], 79% in data set [10] and 87% in [11].

Consider `N=C(N)c1ccc(Oc2cc(NC(=O)C3CCN(C(=O)CCN)CC3)cc(Oc3ccc(C(=N)N)cc3)c2)cc1`, for which the inhibition at 10 µM in [1] was found to be 94%; in data set [2], 60%; in [3] it was 37%. Moreover, the EC50 (as a rule, the concentration needed to bring the measured effect to its halfway point) was 130 nM in data set [12], 1580 nM in data set [13] and 580 nM in data set [14]. Moreover, the Ki in data set [4] was 61 nM; in data set [5], 95 nM; in data set [6], 2680 nM; in data set [7], 2590 nM; in [8], 541 nM. The viability at 10 µM in data set [9] is 98%; in [10] it was 99%; in data set [11] it was 80%.

Regarding `N=C(N)c1ccc(Oc2cc(Oc3ccc(C(=N)N)cc3)cc(C(=O)O[C@H]3CC[C@H](N)CC3)c2)cc1`, the figures for the inhibition at 10 µM in [1], in [2] and in [3] were 89%, 90% and 95%, respectively. In addition, the EC50 in data set [12] was 152 nM; in data set [13], 135 nM; in data set [14] it was 81 nM. The remaining at 20 min in [15] came to 24%; in data set [16] it was 34%; in data set [17], 54%. Also, in data set [18], the solubility (commonly the dissolved amount per volume that the medium holds) turned out to be 182 µM (≈ 88.7 µg/mL). The half-inhibitory concentration (IC50) in data set [19], in [20], in data set [21] and in data set [22] was over 30000 nM in each case. For the same compound, the Ki in data set [4] was found to be 1 nM; in [5], 44 nM; in [6], 2470 nM; in [8], 264 nM. Moreover, the viability at 10 µM in [9] is 92%; in data set [10], 95%; in data set [11], 82%.

For `N=C(N)c1ccc(Oc2cc(OCc3ccc(Br)cc3)cc(C(=O)N[C@H]3CC[C@H](N)CC3)c2)cc1`, the inhibition at 10 µM was 61% in data set [1], 76% in data set [2] and 51% in data set [3]. The inhibition constant Ki amounted to 260 nM in data set [4], 2090 nM in [5], 3970 nM in [6] and 2064 nM in data set [8]. Also, the figures for the viability at 10 µM in [9], in data set [10] and in data set [11] were 78%, 65% and 93%, respectively.

Regarding `N=C(N)c1ccc(Oc2cc(Oc3ccc(CN)cc3)cc(C(=O)N[C@H]3CC[C@H](N)CC3)c2)cc1`, the values for the inhibition at 10 µM in data set [1], in data set [2] and in [3] were 49%, 59% and 54%, respectively. For the same compound, the EC50 is 324 nM in data set [12], 1700 nM in data set [13] and 485 nM in [14]. For the same compound, the inhibition constant Ki came to 40 nM in [4], 3130 nM in data set [6] and 1541 nM in data set [8]. Moreover, the viability at 10 µM is 90% in data set [9], 100% in data set [10] and 63% in [11].
